In data set [1] the test system is MC38 cells. Put plainly: Re-challenge of tumor-free survivors from MC38 efficacy study (Example 3). The format is in vivo, mouse. The settings on record: complete responders of Example 1 re-implanted with MC38 cells in contralateral flank; no treatment in re-challenge (FIG. 4). The method, then: On Day 1 of the re-challenge study, 5×10^5 MC38 cells (0.1 mL suspension) were subcutaneously implanted into the left flank (contralateral to the original cell implant) and tumor growth was monitored. No ADC or anti-PD-1 treatment was administered in the rechallenge study.
Animal handling and tumour measurement was as in Example 1 unless otherwise stated.

In data set [2] the test system is CD25-positive acute myeloid leukemia (AML). Put plainly: Phase 1 study of ADCx25, weekly fractionated dosing, in relapsed or refractory AML/ALL (Example 2). Format: in vivo, human. The text has this: Patients with relapsed or refractory cluster of differentiation 25 (CD25)-positive acute myeloid leukemia (AML) or CD25-positive acute lymphoblastic leukemia (ALL) who have failed, or are intolerant to, any established therapy known to provide clinical benefit at current state of disease. Patients with myelodysplastic syndrome who have received treatment with hypomethylating agents and subsequently present with CD25+ AML and who failed, or are ineligible for standard induction therapy, are eligible for treatment with ADCx25.
Assessment of response to treatment with ADCX25 will be based on bone marrow samples (aspirate or biopsy, if aspirate unattainable). The activity of ADCX25 will be evaluated based on the Investigator's evaluation of the patient's response to ADCX25 as CR, CRi, PR, PD, or NR as defined herein.
ADCX25 is a sterile formulation containing PBD-conjugated HuMax®-TAC (DAR≥1), HuMax®-TAC (DAR=0), and SG3249. It is provided pre-formulated in 10-mL glass vials containing approximately 30 mg of ADCX25 per vial (deliverable volume 5.4 mL at 6 mg/mL). The appropriate quantity of ADCX25 will be diluted in 50 mL of 5% dextrose in water (D5W).
Patients will receive a 1-hour intravenous (IV) infusion of ADCX25 on Day 1 of Cycle 1. […]

For data set [3], the system named is MC38 cells. Put plainly: MC38 efficacy with CD8+ T-cell depletion by anti-CD8 (Example 6). Format: in vivo, mouse. The settings on record: CD8+ T-cells depleted with anti-CD8-2.43 antibody (FIG. 8, FIG. 9). The text has this:
Treatment may cause partial regression (PR) or complete regression (CR) of the tumor in an animal.
In a PR response, the tumor volume is 50% or less of its Day 1 volume for three consecutive measurements during the course of the study, and equal to or greater than 13.5 mm^3 for one or more of these three measurements.
In a CR response, the tumor volume is less than 13.5 mm^3 for three consecutive measurements during the study.
Any animal with a CR response at the end of the study was additionally classified as a tumor-free survivor (TFS).
Animals were scored only once during the study for a PR or CR event and only as CR if both PR and CR criteria were satisfied.
The Coefficient of Drug Interaction (CDI) (11) in were assessed for subadditive, additive, or supra-additive (synergism) properties on Day 21, the last day all evaluable animals remained on study.
The CDI was determined according to the equation below:
Where, • x=mean tumor volume • AB=xAB/xC • A=xA/xC • B=xB/xC […]
On the day of implant 5×10^5 MC38 cells (0.1 mL suspension) were subcutaneously implanted into the right flank of each test animal. Tumors were monitored as their volumes approached the target range of 80-120 mm^3. […]
Tumors were measured twice per week until the study was ended (day29 for anti-CD8+surADCx25 and anti-CD8+anti-PD1+surADCx25 groups; day 44 for surADCx25 alone and surADCx25+anti-CD8). […]

Another data set has as its system CT26 cells. Put plainly: Re-challenge of tumor-free survivors from CT26 efficacy study (Example 5). Format: in vivo, mouse. The settings on record: complete responders of Example 4 re-implanted with CT26 cells in contralateral flank; no treatment in re-challenge (FIG. 7). The protocol:
On Day 1 of the re-challenge study […] CT26 cells (0.1 mL suspension) were subcutaneously implanted into the left flank (contralateral to the cell implant of example 4) and tumor growth was monitored and measured as described in example 4.
No treatment was administered in the re-challenge study.

The test system of data set [4] is selected advanced solid tumors. Put plainly: Phase 1b dose-escalation study of Camidanlumab Tesirine in advanced solid tumors (Example 9). Format: in vivo, human. The text has this: This is a report of preliminary data from a Phase 1b trial of Camidanlumab Tesirine (NCT03621982; ADC Therapeutics) in patients (pt) with selected advanced solid tumors […] (AST) who have failed existing therapies.
This multicenter, open-label, dose-escalation (part 1), and dose-expansion (part 2) study is currently enrolling subjects (aged≥18 years) with selected AST. The primary objective is to evaluate the safety and tolerability and to identify the recommended dose. Secondary objectives are to assess preliminary antitumor activity, pharmacokinetics (PK), and immunogenicity.
Subjects receive 1-hour intravenous infusions of Camidanlumab Tesirine every 3 weeks (Q3W) from a starting dose cohort of 20 μg/kg. Subsequent cohorts are enrolled at escalating doses according to a 3+3 design.

The test system of another data set is advanced melanoma. To be noted: phase III trials; cited from earlier work.
Where [5] appears, read: 6 subjects, 20-30 μg/kg Q3W i.v., preliminary.

Take “ADCx25: human antibody against human CD25 (AB12, HuMax-TAC) attached to a pyrrolobenzodiazepine (PBD) warhead via a cleavable linker”: the “development of new tumors on re-challenge” value in the data set with MC38 cells [1] was “did not develop new tumors”. Also, in data set [2] (2 subjects with AML who had previously received bone marrow stem cell transfers), the “clinical response of AML” value is given as “complete remission”. In data set [2] (Patient 1: relapsed AML FAB M0, 30 ug/kg QW cohort, prior allogenic transplant, after 5 cycles), the response to treatment result is “CRi”. Further, in the data set with MC38 cells [3], the “anti-tumor activity when CD8+ T-cells are depleted” value is on record as “dependent on CD8+ T-cells”. Further, in the data set on CT26 cells, the “development of new tumors on re-challenge” value is given as “did not develop new tumors”. For the same molecule, the “number of subjects with stable disease” value in data set [4] (20 μg/kg Q3W) came to 2. Besides, the “number of subjects with stable disease” value in data set [4] (30 μg/kg Q3W, reported a few days after the cutoff date) is reported as 2. Also, the dose-limiting toxicities entry in data set [4] (6 subjects, 20-30 μg/kg Q3W i.v., 21-day reporting period, preliminary, as of Apr. 16, 2019) is given as “No dose-limiting toxicities”. Besides, in data set [4] (setting [5]), the “best response recorded (response evaluation criteria in solid tumors)” value is recorded as “Stable disease”; the “most common (≥3 pts) adverse events regardless of relationship” value is “fatigue and nausea”; the “related high-grade AEs or serious AEs” value is recorded as “no reported grade ?3 AEs or serious AEs considered related”.

B1: tremelimumab: anti-CTLA4 antibody (antibody)
VH: GVVQPGRSLRLSCAASGFTFSSYGMHWVRQAPGKGLEWVAVIWYDGSNKYYADSVKGRFTISRDNSKNTLYLQMNSLRAEDTAVYYCARDPRGATLYYYYYGMDVWGQGTTVTVSSASTKGPSVFPLAPCSRSTSESTAALGCLVKDYFPEPVTVSWNSGALTSGVH
VL: PSSLSASVGDRVTITCRASQSINSYLDWYQQKPGKAPKLLIYAASSLQSGVPSRFSGSGSGTDFTLTISSLQPEDFATYYCQQYYSTPFTFGPGTKVEIKRTVAAPSVFIFPPSDEQLKSGTASVVCLLNNFYPREAKV
modifications: Tremelimumab VH; Tremelimumab VL
notes: anti-CTLA4 antibody
On to B1, for which, in the data set with advanced melanoma, the “overall survival compared to the standard of care (temozolomide or dacarbazine)” value was “did not significantly increase”.

Values taken from patent publication US20220111065A1, “MOLECULAR ADJUVANT” (ADC THERAPEUTICS SA, priority 2018, published 2022).
